Assay results published in ChEMBL document CHEMBL5108059, “Discovery of 2-Methyl-2-(4-(2-methyl-8-(1H-pyrrolo[2,3-b]pyridin-6-yl)-1H-naphtho[1,2-d]imidazol-1-yl)phenyl)propanenitrile as a Novel PI3K/mTOR Inhibitor with Enhanced Antitumor Efficacy In Vitro and In Vivo” (J Med Chem, 2022).

Key:
[1] = molecular target: T1, Phosphatidylinositol 4,5-bisphosphate 3-kinase catalytic subunit delta isoform (Homo sapiens, UniProt O00329); experiment: Inhibition of PI3Kdelta (unknown origin) using PIP2 as substrate incubated for 2 hrs in presence of ATP by Kinase Glo luminescence assay
T1 sequence (O00329 whole entry): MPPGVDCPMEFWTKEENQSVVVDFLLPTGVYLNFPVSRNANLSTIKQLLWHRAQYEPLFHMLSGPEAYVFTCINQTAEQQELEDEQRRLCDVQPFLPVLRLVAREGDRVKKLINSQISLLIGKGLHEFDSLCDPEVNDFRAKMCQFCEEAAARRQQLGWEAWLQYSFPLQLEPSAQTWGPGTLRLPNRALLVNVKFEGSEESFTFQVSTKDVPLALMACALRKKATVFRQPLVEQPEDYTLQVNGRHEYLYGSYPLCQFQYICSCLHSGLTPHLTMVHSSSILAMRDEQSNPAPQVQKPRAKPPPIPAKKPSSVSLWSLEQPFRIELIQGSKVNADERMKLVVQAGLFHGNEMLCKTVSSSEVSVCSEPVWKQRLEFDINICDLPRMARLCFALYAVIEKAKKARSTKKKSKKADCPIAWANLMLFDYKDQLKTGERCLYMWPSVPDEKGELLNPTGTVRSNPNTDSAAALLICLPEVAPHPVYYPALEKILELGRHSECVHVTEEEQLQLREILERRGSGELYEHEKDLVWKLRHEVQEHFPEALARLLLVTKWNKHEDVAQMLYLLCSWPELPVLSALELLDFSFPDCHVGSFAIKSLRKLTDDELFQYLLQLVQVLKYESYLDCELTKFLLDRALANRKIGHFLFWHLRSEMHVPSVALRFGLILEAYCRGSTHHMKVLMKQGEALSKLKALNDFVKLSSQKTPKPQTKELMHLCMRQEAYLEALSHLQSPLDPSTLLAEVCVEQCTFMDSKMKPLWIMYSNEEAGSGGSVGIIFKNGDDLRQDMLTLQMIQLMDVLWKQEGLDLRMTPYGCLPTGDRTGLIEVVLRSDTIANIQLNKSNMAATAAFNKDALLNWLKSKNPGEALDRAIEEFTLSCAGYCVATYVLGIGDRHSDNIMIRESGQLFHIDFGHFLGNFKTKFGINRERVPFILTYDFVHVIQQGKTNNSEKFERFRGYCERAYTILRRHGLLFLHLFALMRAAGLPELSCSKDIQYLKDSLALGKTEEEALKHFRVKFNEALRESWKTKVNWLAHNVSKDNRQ

[2] = system: HT-29; experiment: Antiproliferative activity against human HT-29 cells with PIK3CA mutation assessed as inhibition of cell growth incubated for 48 to 72 hrs by MTT assay; type: functional, cell-based
[3] = system: SW-620; experiment: Antiproliferative activity against human SW620 cells assessed as inhibition of cell growth incubated for 48 to 72 hrs by MTT assay; type: functional, cell-based
[4] = system: HCT-15; experiment: Antiproliferative activity against human HCT-15 cells with PIK3CA mutation assessed as inhibition of cell growth incubated for 48 to 72 hrs by MTT assay; type: functional, cell-based
[5] = molecular target: Serine/threonine-protein kinase mTOR (Homo sapiens, UniProt P42345); experiment: Inhibition of N-terminal FLAG-tagged recombinant human mTOR (1362 to end residue) using ULight-4EBP1 peptide as substrate incubated for 30 mins in presence of ATP by Lance ultra assay
[6] = system: HeLa; experiment: Antiproliferative activity against human HeLa cells assessed as inhibition of cell growth incubated for 48 to 72 hrs by MTT assay; type: functional, cell-based
[7] = system: NCI-H3122; experiment: Antiproliferative activity against human NCI-H3122 cells assessed as inhibition of cell growth incubated for 48 to 72 hrs by MTT assay; type: functional, cell-based
[8] = system: NCI-H446; experiment: Antiproliferative activity against PTEN-null human NCI-H446 cells assessed as inhibition of cell growth incubated for 48 to 72 hrs by MTT assay; type: functional, cell-based
[9] = molecular target: Phosphatidylinositol 4,5-bisphosphate 3-kinase catalytic subunit alpha isoform (Homo sapiens, UniProt P42336); experiment: Inhibition of PI3Kalpha (unknown origin) using PIP2 as substrate incubated for 1 hr in presence of ATP by Kinase Glo luminescence assay
Chain of Phosphatidylinositol 4,5-bisphosphate 3-kinase catalytic subunit alpha isoform (P42336 whole entry, canonical isoform): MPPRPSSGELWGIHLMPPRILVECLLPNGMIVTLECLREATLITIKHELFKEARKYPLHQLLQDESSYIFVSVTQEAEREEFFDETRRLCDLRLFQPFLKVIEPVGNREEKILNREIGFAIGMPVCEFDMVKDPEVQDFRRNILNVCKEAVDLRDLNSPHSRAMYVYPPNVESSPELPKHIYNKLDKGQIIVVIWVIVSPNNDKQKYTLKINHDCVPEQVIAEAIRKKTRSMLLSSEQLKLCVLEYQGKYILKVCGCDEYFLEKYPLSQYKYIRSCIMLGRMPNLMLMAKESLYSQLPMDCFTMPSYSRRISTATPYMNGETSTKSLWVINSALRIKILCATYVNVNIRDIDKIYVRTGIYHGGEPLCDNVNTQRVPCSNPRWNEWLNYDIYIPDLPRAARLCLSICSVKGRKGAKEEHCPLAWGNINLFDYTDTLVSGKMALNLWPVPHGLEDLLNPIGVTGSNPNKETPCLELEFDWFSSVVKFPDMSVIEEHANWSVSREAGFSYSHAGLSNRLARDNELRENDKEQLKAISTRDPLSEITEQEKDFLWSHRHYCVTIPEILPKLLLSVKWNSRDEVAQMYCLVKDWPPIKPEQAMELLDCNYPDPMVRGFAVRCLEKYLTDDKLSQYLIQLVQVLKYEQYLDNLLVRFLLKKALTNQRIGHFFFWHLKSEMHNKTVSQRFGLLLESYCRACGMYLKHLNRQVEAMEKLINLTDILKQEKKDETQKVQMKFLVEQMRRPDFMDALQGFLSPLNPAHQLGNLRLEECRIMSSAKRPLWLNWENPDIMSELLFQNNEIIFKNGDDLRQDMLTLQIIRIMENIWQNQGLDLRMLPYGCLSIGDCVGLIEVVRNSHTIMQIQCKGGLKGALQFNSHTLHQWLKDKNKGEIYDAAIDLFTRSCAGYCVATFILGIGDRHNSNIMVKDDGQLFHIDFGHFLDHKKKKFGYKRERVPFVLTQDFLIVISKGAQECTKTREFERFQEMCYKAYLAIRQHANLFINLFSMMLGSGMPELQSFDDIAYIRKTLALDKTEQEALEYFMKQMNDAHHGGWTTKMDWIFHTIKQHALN

SMILES | IC50 [1] [nM] | IC50 [2] [nM] | IC50 [3] [nM] | IC50 [4] [nM] | IC50 [5] [nM] | IC50 [6] [nM] | IC50 [7] [nM] | IC50 [8] [nM] | IC50 [9] [nM]
Cc1nc2cnc3ccc(-c4cnc5[nH]ccc5c4)cc3c2n1-c1ccccc1 | 32.3 | 2310 | 2910 | 1940 | 73.9 | 3640 | 5610 | 4510 | 41
CNC(=O)c1ccc(-c2ccc3ncc4nc(C)n(-c5ccc(F)cc5)c4c3c2)cc1 | 133 | 9890 | > 20000 | 12700 | 157 | > 20000 | > 20000 | > 20000 | 195
Cc1nc2cnc3ccc(-c4cnc5[nH]ccc5c4)cc3c2n1CC1CCOCC1 | 218 |  |  |  | 415 |  |  |  | 307
Cc1nc2cnc3ccc(-c4cnc5[nH]ccc5c4)cc3c2n1-c1ccc(C(F)(F)F)cc1 | 66.3 | 1250 | 1160 | 970 | 109 | 1080 | 1030 | 1390 | 47.1
Cc1nc2cnc3ccc(-c4cnc5ccccc5c4)cc3c2n1-c1ccc(F)cc1 | 40.5 | 3250 | 2790 | 3090 | 32.3 | 4310 | 5080 | 7130 | 33.1
Cc1nc2cnc3ccc(-c4cnc5[nH]ccc5c4)cc3c2n1CC1CCOC1 (centres undefined) | 450 |  |  |  | 392 |  |  |  | 365
Cc1nc2cnc3ccc(-c4cnc5[nH]ccc5c4)cc3c2n1-c1ccc(C(C)(C)C#N)cc1 | 21.7 | 310 | 230 | 290 | 29.1 | 190 | 370 | 1080 | 12.5
Cc1nc2cnc3ccc(-c4ccc(N)cc4)cc3c2n1-c1ccc(F)cc1 | 90.3 | 1980 | 2150 | 2320 | 121 | 3130 | 8750 | 6970 | 68.1
Cc1noc(C)c1-c1ccc2ncc3nc(C)n(-c4ccc(F)cc4)c3c2c1 | 852 |  |  |  | > 1000 |  |  |  | > 1000
Cc1nc2cnc3ccc(-c4cnc5[nH]ccc5c4)cc3c2n1[C@H](C)c1ccc(F)cc1 | 184 | 1380 | 1740 | 1170 | 90.2 | 3940 | 2050 | 3970 | 151
COc1ccc(-n2c(C)nc3cnc4ccc(-c5cnc6[nH]ccc6c5)cc4c32)cc1 | 17.2 | 820 | 1870 | 750 | 67.2 | 960 | 1330 | 1510 | 26.3
COc1ccc(-c2ccc3ncc4nc(C)n(-c5ccc(F)cc5)c4c3c2)cc1 | > 1000 |  |  |  | > 1000 |  |  |  | 321
COC(=O)c1ccc(-c2ccc3ncc4nc(C)n(-c5ccc(F)cc5)c4c3c2)cc1 | 336 | 18700 | > 20000 | > 20000 | 206 | 19800 | > 20000 | > 20000 | 251
Cc1nc2cnc3ccc(-c4ccc(C(F)(F)F)cc4)cc3c2n1-c1ccc(F)cc1 | > 1000 |  |  |  | > 1000 |  |  |  | 507
Cc1nc2cnc3ccc(-c4ccc(Cl)cc4)cc3c2n1-c1ccc(F)cc1 | > 1000 |  |  |  | > 1000 |  |  |  | 569
Oc1cccc(-c2nc(N3CCOCC3)c3oc4ncccc4c3n2)c1 [PI-103] |  | 1310 | 1070 | 1760 |  | 3720 | 2510 | 2160 | 
Cc1nc2cnc3ccc(-c4ccc5[nH]ccc5c4)cc3c2n1-c1ccc(F)cc1 | 57.3 | 2720 | 2530 | 1920 | 49.3 | 1790 | 2310 | 3080 | 29.8
Cc1nc2cnc3ccc(-c4ccc5ccccc5c4)cc3c2n1-c1ccc(F)cc1 | 202 | 3140 | 13700 | 9750 | 190 | 16800 | 8950 | 12200 | 148
Cc1nc2cnc3ccc(-c4cnn(C)c4)cc3c2n1-c1ccc(F)cc1 | > 1000 |  |  |  | > 1000 |  |  |  | 672
CC(=O)c1ccc(-c2ccc3ncc4nc(C)n(-c5ccc(F)cc5)c4c3c2)cc1 | > 1000 |  |  |  | 487 |  |  |  | 304
Cc1nc2cnc3ccc(-c4cnc5[nH]ccc5c4)cc3c2n1C1CC1 | 814 |  |  |  | > 1000 |  |  |  | 501
Cc1nc2cnc3ccc(-c4ccc(C#N)cc4)cc3c2n1-c1ccc(F)cc1 | 513 |  |  |  | > 1000 |  |  |  | 352

Further lines, results first:

IC50 [1] [nM] | IC50 [2] [nM] | IC50 [3] [nM] | IC50 [4] [nM] | IC50 [5] [nM] | IC50 [6] [nM] | IC50 [7] [nM] | IC50 [8] [nM] | IC50 [9] [nM] | SMILES
105 | 1150 | 3210 | 1790 | 84.9 | 2760 | 5360 | 4820 | 139 | Cc1nc2cnc3ccc(-c4cnc5[nH]ccc5c4)cc3c2n1-c1ccc(CC#N)cc1
106 | 2980 | 4160 | 3060 | 263 | 2720 | 6710 | 7590 | 117 | Cc1nc2cnc3ccc(-c4cnc5[nH]ccc5c4)cc3c2n1Cc1ccccc1
40.7 | 1210 | 2130 | 2020 | 93.8 | 1710 | 4750 | 3610 | 51.3 | Cc1nc2cnc3ccc(-c4ccc(N)nc4)cc3c2n1-c1ccc(F)cc1
93.1 | 1530 | 1830 | 2850 | 159 | 3710 | 2360 | 3210 | 104 | Cc1nc2cnc3ccc(-c4cnc5[nH]ccc5c4)cc3c2n1-c1ccc(C(F)(F)F)nc1
28.6 | 910 | 1370 | 830 | 45.2 | 510 | 670 | 1650 | 19.3 | Cc1nc2cnc3cc(F)c(-c4cnc5[nH]ccc5c4)cc3c2n1-c1ccc(C(C)(C)C#N)cc1
> 1000 |  |  |  | 679 |  |  |  | 472 | Cc1nc2cnc3ccc(-c4cnc5[nH]ccc5c4)cc3c2n1C
55.2 | 1160 | 970 | 1290 | 76.4 | 1920 | 1310 | 2100 | 41.4 | Cc1nc2cnc3ccc(-c4cnc5[nH]ccc5c4)cc3c2n1-c1ccc(F)nc1
> 1000 |  |  |  | 596 |  |  |  | 463 | Cc1nc2cnc3ccc(-c4cnc(N5CCOCC5)nc4)cc3c2n1-c1ccc(F)cc1
> 1000 |  |  |  | > 1000 |  |  |  | > 1000 | Cc1nc2cnc3ccc(-c4cc(C(F)(F)F)cc(C(F)(F)F)c4)cc3c2n1-c1ccc(F)cc1
> 1000 |  |  |  | 781 |  |  |  | 487 | Cc1nc2cnc3ccc(-c4ccc(F)cc4)cc3c2n1-c1ccc(F)cc1
579 |  |  |  | > 1000 |  |  |  | 357 | Cc1ccc(-c2ccc3ncc4nc(C)n(-c5ccc(F)cc5)c4c3c2)cc1
